Results published in PMC6431625 (Frontiers in Endocrinology, 2019).
Values belong to the molecule of their own block, whether it stands above or below them.

Legend:
[1] = system: FP; set-up: method as in PMID 10454504; settings: cited from earlier work
[2] = biological target: T1, AT1R-Venus (Homo sapiens, UniProt P30556); type: cell-based; settings: ligand 1 μM
T1 construct: SP (signal peptide) (N); expressed in transfected cells; host or cells: HEK 293
T1 sequence (P30556 1-359): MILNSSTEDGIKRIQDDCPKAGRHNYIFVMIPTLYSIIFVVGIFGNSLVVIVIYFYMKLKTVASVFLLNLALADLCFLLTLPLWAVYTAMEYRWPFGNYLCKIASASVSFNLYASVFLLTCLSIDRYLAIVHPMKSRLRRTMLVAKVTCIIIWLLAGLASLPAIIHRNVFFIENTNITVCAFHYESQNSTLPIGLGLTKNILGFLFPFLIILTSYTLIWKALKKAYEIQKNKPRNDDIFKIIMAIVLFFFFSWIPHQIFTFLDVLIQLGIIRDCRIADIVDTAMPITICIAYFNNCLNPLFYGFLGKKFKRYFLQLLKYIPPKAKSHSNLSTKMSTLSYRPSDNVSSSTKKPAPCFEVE

[3] = biological target: T2, FP-Venus (Homo sapiens, UniProt P43088); type: cell-based; settings: ligand 1 μM
T2 construct: SP (signal peptide) (N); expressed in transfected cells; host or cells: HEK 293

[4] = biological target: T3, AT1R-WT/FP-Venus dimer (Homo sapiens, UniProt P30556+P43088); type: cell-based; settings: ligand 1 μM
T3 construct: SP (signal peptide) (N); expressed in transfected cells; host or cells: HEK 293

[5] = biological target: T4, AT1R[Δ325]-Venus (Homo sapiens, UniProt P30556+P43088); type: cell-based; settings: ligand 1 μM
T4 construct: SP (signal peptide) (N); expressed in transfected cells; host or cells: HEK 293

[6] = system: OTR-Venus; type: cell-based, human; settings: ligand 1 μM
[7] = biological target: T5, AT1R-RlucII (Homo sapiens, UniProt P30556+P43088); experiment: Enhanced bystander BRET trafficking of AT1R-RlucII co-expressed with wildtype FP (Lyn-rGFP, rGFP-FYVE); type: cell-based; settings: ligand 1 μM; co-expressed WT FP; HEK293
T5 construct: SP (signal peptide) (N); expressed in transfected cells; host or cells: HEK293

[8] = biological target: T6, FP-RlucII (Homo sapiens, UniProt P43088); experiment: Enhanced bystander BRET trafficking of FP-RlucII co-expressed with wildtype AT1R (Lyn-rGFP, rGFP-FYVE); type: cell-based; settings: co-expressed WT-AT1R; HEK293; PGF2α 1 μM; Ang II data not shown
T6 construct: SP (signal peptide) (N); expressed in transfected cells; host or cells: HEK293

[9] = biological target: T7, SP-FLAG-hAT1R-KPVAT-Venus (human, UniProt P30556 1-359); experiment: FRET or BRET; living HEK 293 cells, 37°C, Kreb's buffer pH 7.4, coelenterazine h; β-arrestin-RlucII donor, receptor-Venus acceptor expressed alone (no partner receptor); ligand-induced ΔBRET after Ang II (1 μM), followed 90 min; settings: partners not purified
T7 construct: human angiotensin II type 1 receptor, wild type; amplified from pcDNA3/SP-FLAG-hAT1R-WT; A signal peptide (SP); BRET acceptor; also called AT1R-Venus; angiotensin II type 1 receptor; not shown: Venus (after the linker KPVAT), C-terminal, kept
T7 sequence (looked up): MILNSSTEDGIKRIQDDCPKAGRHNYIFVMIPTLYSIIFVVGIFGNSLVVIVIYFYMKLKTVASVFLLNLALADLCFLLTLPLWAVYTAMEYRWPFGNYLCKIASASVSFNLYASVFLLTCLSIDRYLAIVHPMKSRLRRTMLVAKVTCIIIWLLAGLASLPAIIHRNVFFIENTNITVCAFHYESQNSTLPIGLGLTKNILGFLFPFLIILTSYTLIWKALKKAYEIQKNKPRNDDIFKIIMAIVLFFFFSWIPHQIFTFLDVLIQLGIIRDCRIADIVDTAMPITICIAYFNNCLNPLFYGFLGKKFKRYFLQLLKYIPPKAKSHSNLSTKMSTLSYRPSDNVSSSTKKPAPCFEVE

[10] = biological target: T7, SP-FLAG-hAT1R-KPVAT-Venus; experiment: FRET or BRET; living HEK 293 parental cells, 37°C, Kreb's buffer pH 7.4; β-arrestin-RlucII donor, receptor-Venus acceptor co-expressed with the untagged partner receptor (AT1R-Venus, AT1R[Δ325]-Venus or OTR-Venus with FP-WT; FP-Venus with AT1R-WT); ΔBRET after PGF2α (1 μM); also other FP ligands, AT1R antagonists and endocytosis inhibitors; settings: partners not purified

T3 sequence (P43088 whole entry, one chain of several): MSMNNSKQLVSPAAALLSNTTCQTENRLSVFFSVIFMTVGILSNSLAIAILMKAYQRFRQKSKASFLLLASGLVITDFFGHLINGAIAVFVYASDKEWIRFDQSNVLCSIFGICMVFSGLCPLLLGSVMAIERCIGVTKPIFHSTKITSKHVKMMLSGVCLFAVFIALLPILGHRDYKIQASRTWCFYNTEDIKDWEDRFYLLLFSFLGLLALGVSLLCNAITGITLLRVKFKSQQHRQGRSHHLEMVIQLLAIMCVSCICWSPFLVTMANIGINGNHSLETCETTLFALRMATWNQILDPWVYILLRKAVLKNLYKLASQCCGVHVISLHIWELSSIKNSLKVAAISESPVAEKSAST
T5 sequence (P43088 whole entry, one chain of several): as above
T4 sequence (P43088 whole entry, stated change not applied, one chain of several): as the sequence (P43088 whole entry, one chain of several) above
T2 sequence (P43088 whole entry): as the sequence (P43088 whole entry, one chain of several) above
T6 sequence (P43088 whole entry, one chain of several): as above

Molecule: O=C(O)CCC/C=C\C[C@@H]1[C@@H](/C=C/[C@H](O)C2Cc3ccccc3C2)[C@@H](F)C[C@@H]1O [AL-8810]
Agonist properties at FP [1]: partial agonist properties

Ligand-induced recruitment of β-arrestin 1/2-RlucII to AT1R-Venus alone [2]: no responses were detected | Ligand-induced recruitment of β-arrestin 1/2-RlucII to FP-Venus alone [3]: did not induce recruitment | Ligand-induced recruitment of β-arrestin 1/2-RlucII to the AT1R-WT/FP-Venus dimer [4]: did not induce recruitment | Ligand-induced recruitment of β-arrestin 1/2-RlucII to AT1R[Δ325]-Venus in the context of the dimer [5]: No responses were detected
Molecule: CCCCC[C@H](O)/C=C/[C@@H]1[C@@H](C/C=C\CCCC(=O)O)[C@@H](O)C[C@H]1O [PGF2α, prostaglandin F2α]
Ligand-induced recruitment of β-arrestin 1/2-RlucII to OTR-Venus in the context of the dimer [6]: No responses were detected | Trafficking of AT1R-RlucII (membrane Lyn-rGFP and endosome rGFP-FYVE bystander BRET) [7]: time-dependent loss of the membrane signal and an increase in the endosomal population | Trafficking of FP-RlucII (membrane Lyn-rGFP and endosome rGFP-FYVE bystander BRET) [8]: loss of membrane-localized receptor and a transient increase in an early endosomal population

t1/2 of ligand-induced recruitment (BRET) [9]: < 2 min | t1/2 of ligand-induced recruitment (BRET) [10]: 20 min
B1: β-arrestin 1-RlucII (natural protein, UniProt P49407 1-418, looked up)
chain: MGDKGTRVFKKASPNGKLTVYLGKRDFVDHIDLVDPVDGVVLVDPEYLKERRVYVTLTCAFRYGREDLDVLGLTFRKDLFVANVQSFPPAPEDKKPLTRLQERLIKKLGEHAYPFTFEIPPNLPCSVTLQPGPEDTGKACGVDYEVKAFCAENLEEKIHKRNSVRLVIRKVQYAPERPGPQPTAETTRQFLMSDKPLHLEASLDKEIYYHGEPISVNVHVTNNTNKTVKKIKISVRQYADICLFNTAQYKCPVAMEEADDTVAPSSTFCKVYTLTPFLANNREKRGLALDGKLKHEDTNLASSTLLREGANREILGIIVSYKVKVKLVVSRGGLLGDLASSDVAVELPFTLMHPKPKEEPPHREVPENETPVDTNLIELDTNDDDIVFEDFARQRLKGMKDDKEEEEDGTGSPQLNNR
notes: β-arrestin 1; BRET donor; also called βarr1-RlucII
